In patent US20090124672A1 (priority 2007, published 2009):

How the values were obtained:
[1] = target: T1, hALDH2 (recombinant human mitochondria ALDH) (Homo sapiens, UniProt P05091); assay: ALDH2 inhibition assay (NADH formation, formaldehyde substrate); assay type: biochemical; conditions: for inhibition at 1 µM: read-out: hALDH2 inhibition (IC50 hALDH2 column)
T1 sequence (P05091 18-517): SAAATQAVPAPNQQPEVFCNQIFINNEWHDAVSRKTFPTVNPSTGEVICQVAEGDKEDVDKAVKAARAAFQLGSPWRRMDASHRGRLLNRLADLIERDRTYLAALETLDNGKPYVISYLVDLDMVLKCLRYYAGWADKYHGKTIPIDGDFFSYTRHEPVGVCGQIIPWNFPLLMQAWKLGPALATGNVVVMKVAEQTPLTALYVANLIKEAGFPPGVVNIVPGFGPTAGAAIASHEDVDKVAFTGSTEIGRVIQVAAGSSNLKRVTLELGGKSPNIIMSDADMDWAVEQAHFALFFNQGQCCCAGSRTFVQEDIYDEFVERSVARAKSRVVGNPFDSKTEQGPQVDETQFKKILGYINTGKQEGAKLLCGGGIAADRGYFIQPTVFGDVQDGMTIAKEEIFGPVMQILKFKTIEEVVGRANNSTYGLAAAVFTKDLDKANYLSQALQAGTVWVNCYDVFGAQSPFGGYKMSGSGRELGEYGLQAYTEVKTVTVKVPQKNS
Summary of the method: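 1 nM enzyme in 50 mM sodium phosphate pH 7.4 with 1.2 mM NAD+ and compound at 0.03–1000 nM; reaction started with 0.15 mM formaldehyde at 25 °C. NADH formation followed by fluorescence (ex 340/em 460 nm). IC50 from sigmoidal fits with floating Hill slope; apparent Ki from Morrison equation if tight binding.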

hMAO-B = target: T2, hMAO-B (Homo sapiens, UniProt P27338); assay: MAO-B inhibition assay (Amplex Red, horseradish peroxidase-coupled); assay type: biochemical; conditions: at 10 μM; for inhibition at 10 µM: read-out: hMAO-B inhibition (IC50 hMAO-B)
T2 construct: purchased Sigma M7441
T2 sequence (P27338 1-520): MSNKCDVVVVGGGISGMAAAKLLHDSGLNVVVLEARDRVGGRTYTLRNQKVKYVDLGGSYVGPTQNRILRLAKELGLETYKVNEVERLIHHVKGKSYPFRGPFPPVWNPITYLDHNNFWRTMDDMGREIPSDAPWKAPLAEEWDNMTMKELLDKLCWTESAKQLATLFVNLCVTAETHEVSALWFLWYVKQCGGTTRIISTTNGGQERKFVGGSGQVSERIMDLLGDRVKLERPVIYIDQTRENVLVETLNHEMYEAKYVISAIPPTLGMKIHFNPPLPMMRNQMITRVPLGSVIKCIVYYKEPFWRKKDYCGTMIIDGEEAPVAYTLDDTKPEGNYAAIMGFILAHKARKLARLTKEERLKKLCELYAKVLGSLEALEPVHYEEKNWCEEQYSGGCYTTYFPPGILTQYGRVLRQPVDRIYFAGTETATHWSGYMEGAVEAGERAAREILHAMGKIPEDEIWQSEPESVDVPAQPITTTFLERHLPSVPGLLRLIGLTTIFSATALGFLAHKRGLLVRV
Description: MAO-A (Sigma M7316) and MAO-B (Sigma M7441) inhibition assays were conducted in 96-well micro-plates according to the method described by Zhou et al. [Analytical Biochemistry 253, 169-174, 1997]. Both assays were performed in potassium phosphate buffer (0.1 M, pH 7.5) containing 0.5 mM tyramine (Sigma T2879), 0.12 mM N-acetyl-3,7-dihydrophenoxazine (Amplex Red, Invitrogen A12222), 1.2 unit/ml horseradish peroxidase (Sigma P2088), 0.6 unit/ml MAO-A or 2.5 unit/ml MAO-B, and various concentrations of test compounds (0.1 nM to 10 uM). Reactions were initiated by the addition of a pre-mixed solution of tyramine, horseradish peroxidase and Amplex Red, and were allowed to proceed at 37° C. for 30 min. Enzyme activities were determined by measuring absorbance at 570 nm (SpectralMax Plate reader), absorbance of oxidized Amplex Red generated by this horseradish peroxidase-coupled reaction. Nonspecifically formed products were determined in the presence of 2 and 10 µM clorgyline and deprenyl for MAO-A and MAO-B, respectively. IC50 values were determined by fitting concentration-inhibition data to sigmoidal dose-response curves with two-floating parameters: IC50 and Hill coefficient.

Structure (SMILES) | IC50 [1] [µM] | inhibition at 10 µM (hMAO-B) [%] | hMAO-B inhibition (IC50 hMAO-B) (hMAO-B) [%] | inhibition at 1 µM [1] [%]
C[C@@H](NCC(=O)COc1ccc2c(=O)c(-c3ccc(O)cc3)coc2c1)c1ccc(F)cc1 [PT-56, 7-(3-{[(1R)-1-(4-fluorophenyl)ethyl]amino}-2-oxopropoxy)-3-(4-hydroxyphenyl)chromen-4-one] | 0.008 | 29 | – | –
O=c1c(-c2ccc(O)cc2)coc2cc(OCCc3cccc(C(F)(F)F)c3)ccc12 [PT-59, 3-(4-hydroxyphenyl)-7-{[3-(trifluoromethyl)phenyl]ethoxy}chromen-4-one] | 0.67 | – | 24 | –
O=c1c(-c2ccc(O)cc2)coc2cc(OCc3nnc(-c4cccc(C(F)(F)F)c4)o3)ccc12 [PT-60, 3-(4-hydroxyphenyl)-7-({5-[3-(trifluoromethyl)phenyl](1,3,4-oxadiazol-2-yl)}methoxy)chromen-4-one] | 0.042 | 13 | – | –
Cc1nc(-c2ccc(C(F)(F)F)cc2)sc1COc1ccc2c(=O)c(-c3ccc(C#N)cc3)coc2c1 [PT-65, 4-[7-({4-methyl-2-[4-(trifluoromethyl)phenyl](1,3-thiazol-5-yl)}methoxy)-4-oxochromen-3-yl]benzenecarbonitrile] | – | 25 | – | 30
Cc1nc(-c2ccc(C(F)(F)F)cc2)sc1COc1ccc2c(=O)c(-c3ccc(NS(C)(=O)=O)cc3)coc2c1 [PT-66, 3-{4-[(methylsulfonyl)amino]phenyl}-7-({4-methyl-2-[4-(trifluoromethyl)phenyl](1,3-thiazol-5-yl)}methoxy)chromen-4-one] | – | 25 | – | 48
COc1ccc(-c2coc3cc(OCc4sc(-c5ccc(C(F)(F)F)cc5)nc4C)ccc3c2=O)cn1 [PT-67, 3-(6-methoxy(3-pyridyl))-7-({4-methyl-2-[4-(trifluoromethyl)phenyl](1,3-thiazol-5-yl)}methoxy)chromen-4-one] | – | 16 | – | 25
N#Cc1ccc(-c2coc3cc(OCc4nnc(-c5cc(F)cc(C(F)(F)F)c5)o4)ccc3c2=O)cc1 [PT-68, 4-[7-({5-[5-fluoro-3-(trifluoromethyl)phenyl](1,3,4-oxadiazol-2-yl)}methoxy)-4-oxochromen-3-yl]benzenecarbonitrile] | – | 14 | – | 33
CS(=O)(=O)Nc1ccc(-c2coc3cc(OCc4noc(-c5cc(F)cc(C(F)(F)F)c5)n4)ccc3c2=O)cc1 [PT-70, 7-({5-[3-fluoro-5-(trifluoromethyl)phenyl](1,2,4-oxadiazol-3-yl)}methoxy)-3-{4-[(methylsulfonyl)amino]phenyl}chromen-4-one] | – | 11 | – | 20
CS(=O)(=O)c1ccc(-c2coc3cc(OCc4noc(-c5cc(F)cc(C(F)(F)F)c5)n4)ccc3c2=O)cc1 [PT-71, 7-({5-[3-fluoro-5-(trifluoromethyl)phenyl](1,2,4-oxadiazol-3-yl)}methoxy)-3-[4-(methylsulfonyl)phenyl]chromen-4-one] | – | 11 | – | 8

Other lines, results leading:

IC50 [1] [µM] | inhibition at 10 µM (hMAO-B) [%] | hMAO-B inhibition (IC50 hMAO-B) (hMAO-B) [%] | inhibition at 1 µM [1] [%] | Structure (SMILES)
0.02 | 27 | 27 | – | O=c1c(-c2ccc(O)cc2)coc2cc(OCCCc3ccccc3)ccc12 [PT-57, 3-(4-hydroxyphenyl)-7-(3-phenylpropoxy)chromen-4-one]
0.011 | 25 | – | – | O=c1c(-c2ccc(O)cc2)coc2cc(OCc3nnc(-c4cccc(F)c4)o3)ccc12 [PT-58, 7-{[5-(3-fluorophenyl)(1,3,4-oxadiazol-2-yl)]methoxy}-3-(4-hydroxyphenyl)chromen-4-one]
0.096 | 17 | – | – | O=c1c(-c2ccc(O)cc2)coc2cc(OCc3cnc(-c4ccccc4)o3)ccc12 [PT-61, 3-(4-hydroxyphenyl)-7-[(2-phenyl(1,3-oxazol-5-yl))methoxy]chromen-4-one]
– | 8 | – | 43 | O=c1c(-c2ccc(O)cc2)coc2cc(OCc3nnc(-c4ccccc4Cl)s3)ccc12 [PT-64, 7-{[5-(2-chlorophenyl)(1,3,4-thiadiazol-2-yl)]methoxy}-3-(4-hydroxyphenyl)chromen-4-one]
